Patent US12065443B2, “Compounds and pharmaceutical compositions thereof for the treatment of diseases” (priority 2017, dated 2024)

What was measured:
Assay in all cases: biochemical
SIK1 = target: T1, SIK1 (Homo sapiens, UniProt P57059); settings: 33P radioactive SIK kinase assay, AMARA peptide, 10 μM ATP; read-out: SIK1 IC50
T1 construct: purchased Carna Biosciences 02-131
Procedure: (§1) The principle of the ^33P radioactive kinase assay consists in measuring the incorporated ^33P into the substrate AMARA peptide when phosphorylated by SIK1, SIK2 or SIK3 using [^33P]-g-ATP, which correlates with kinase activity.
(§2) 1% DMSO and 10 μM staurosporine final concentrations are used as negative and positive controls.
(§3) 11 μL of enzyme-substrate mixture is added on the assay plates. The reactions are started by adding 9 μL ATP mixture, consisting of non-labeled and ^33P-labeled ATP, on the assay plates.
(§4) The reactions are stopped by adding 25 μL phosphoric acid (150 mM) to the reactions.
(§5) After harvesting the kinase reactions, the filter plates are washed 6 times with phosphoric acid (75 mM). […] The top of the plates are sealed with TopSeal-A. Read-out is performed with a TopCount instrument (PerkinElmer Inc.).

SIK2 = target: T2, SIK2 (Homo sapiens, UniProt Q9H0K1); settings: 33P radioactive SIK kinase assay, AMARA peptide, 10 μM ATP
T2 construct: purchased ThermoFisher Scientific PV4792
Procedure: as §1, §2, §3, §4, §5

SIK3 = target: T3, SIK3 (Homo sapiens, UniProt Q9Y2K2)
T3 construct: purchased SignalChem S12-11G-100
Procedure: as §1, §2, §3, §4, §5

T3 sequence (Q9Y2K2 whole entry): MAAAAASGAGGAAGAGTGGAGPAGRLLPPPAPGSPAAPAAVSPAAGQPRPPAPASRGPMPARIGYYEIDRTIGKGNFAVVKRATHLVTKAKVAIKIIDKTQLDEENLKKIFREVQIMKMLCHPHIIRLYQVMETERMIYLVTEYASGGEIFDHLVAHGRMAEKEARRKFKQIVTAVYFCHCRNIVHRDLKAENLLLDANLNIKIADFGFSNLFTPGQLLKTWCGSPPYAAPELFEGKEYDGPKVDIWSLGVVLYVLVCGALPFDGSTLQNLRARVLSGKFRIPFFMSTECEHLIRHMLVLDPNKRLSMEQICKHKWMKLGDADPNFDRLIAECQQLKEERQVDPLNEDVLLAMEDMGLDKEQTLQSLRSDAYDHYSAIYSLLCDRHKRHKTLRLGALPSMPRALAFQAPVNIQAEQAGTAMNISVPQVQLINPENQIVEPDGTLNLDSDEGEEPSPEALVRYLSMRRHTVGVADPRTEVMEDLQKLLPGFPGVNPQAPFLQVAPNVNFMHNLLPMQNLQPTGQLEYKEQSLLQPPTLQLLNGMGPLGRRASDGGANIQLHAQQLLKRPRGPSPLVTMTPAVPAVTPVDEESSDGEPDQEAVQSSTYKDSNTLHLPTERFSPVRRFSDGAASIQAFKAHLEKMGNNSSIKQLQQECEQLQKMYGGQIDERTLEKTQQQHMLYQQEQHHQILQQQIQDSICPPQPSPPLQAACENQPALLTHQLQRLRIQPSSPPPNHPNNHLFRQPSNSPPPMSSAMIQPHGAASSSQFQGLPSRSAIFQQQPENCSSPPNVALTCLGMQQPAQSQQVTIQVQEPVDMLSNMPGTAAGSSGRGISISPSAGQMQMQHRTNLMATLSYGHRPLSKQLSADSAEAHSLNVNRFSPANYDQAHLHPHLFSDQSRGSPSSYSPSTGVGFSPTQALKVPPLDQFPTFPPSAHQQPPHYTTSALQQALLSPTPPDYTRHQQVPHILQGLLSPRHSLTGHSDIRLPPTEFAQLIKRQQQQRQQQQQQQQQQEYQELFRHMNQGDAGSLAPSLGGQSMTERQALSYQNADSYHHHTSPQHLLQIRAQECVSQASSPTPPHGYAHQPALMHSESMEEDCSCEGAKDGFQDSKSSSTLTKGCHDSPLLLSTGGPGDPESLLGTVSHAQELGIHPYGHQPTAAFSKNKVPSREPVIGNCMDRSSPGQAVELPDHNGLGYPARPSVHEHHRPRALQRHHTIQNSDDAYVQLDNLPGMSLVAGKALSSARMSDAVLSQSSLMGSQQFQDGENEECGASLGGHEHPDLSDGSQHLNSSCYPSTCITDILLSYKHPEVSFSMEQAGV
T1 sequence (P57059 whole entry): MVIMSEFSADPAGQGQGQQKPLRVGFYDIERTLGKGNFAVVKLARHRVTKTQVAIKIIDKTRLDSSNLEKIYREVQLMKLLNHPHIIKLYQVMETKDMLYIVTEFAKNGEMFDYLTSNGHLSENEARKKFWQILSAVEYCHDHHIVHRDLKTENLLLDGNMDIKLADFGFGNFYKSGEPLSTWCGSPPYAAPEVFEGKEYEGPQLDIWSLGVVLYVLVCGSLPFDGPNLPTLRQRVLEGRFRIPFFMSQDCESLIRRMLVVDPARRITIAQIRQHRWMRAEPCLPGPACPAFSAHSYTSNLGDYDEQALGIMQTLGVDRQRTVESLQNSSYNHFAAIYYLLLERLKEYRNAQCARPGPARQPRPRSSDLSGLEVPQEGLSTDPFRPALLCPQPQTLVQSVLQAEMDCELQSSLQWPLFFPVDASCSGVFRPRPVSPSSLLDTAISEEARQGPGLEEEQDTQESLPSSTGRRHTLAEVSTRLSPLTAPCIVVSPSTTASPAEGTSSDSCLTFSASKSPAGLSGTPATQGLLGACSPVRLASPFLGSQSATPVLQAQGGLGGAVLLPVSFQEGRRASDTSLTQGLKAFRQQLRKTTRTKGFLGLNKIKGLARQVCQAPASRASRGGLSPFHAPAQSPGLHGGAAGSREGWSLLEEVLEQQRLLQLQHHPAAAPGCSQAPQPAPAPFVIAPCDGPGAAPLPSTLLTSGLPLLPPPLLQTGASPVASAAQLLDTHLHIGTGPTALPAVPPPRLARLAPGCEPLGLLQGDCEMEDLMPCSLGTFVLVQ
T2 sequence (Q9H0K1 whole entry): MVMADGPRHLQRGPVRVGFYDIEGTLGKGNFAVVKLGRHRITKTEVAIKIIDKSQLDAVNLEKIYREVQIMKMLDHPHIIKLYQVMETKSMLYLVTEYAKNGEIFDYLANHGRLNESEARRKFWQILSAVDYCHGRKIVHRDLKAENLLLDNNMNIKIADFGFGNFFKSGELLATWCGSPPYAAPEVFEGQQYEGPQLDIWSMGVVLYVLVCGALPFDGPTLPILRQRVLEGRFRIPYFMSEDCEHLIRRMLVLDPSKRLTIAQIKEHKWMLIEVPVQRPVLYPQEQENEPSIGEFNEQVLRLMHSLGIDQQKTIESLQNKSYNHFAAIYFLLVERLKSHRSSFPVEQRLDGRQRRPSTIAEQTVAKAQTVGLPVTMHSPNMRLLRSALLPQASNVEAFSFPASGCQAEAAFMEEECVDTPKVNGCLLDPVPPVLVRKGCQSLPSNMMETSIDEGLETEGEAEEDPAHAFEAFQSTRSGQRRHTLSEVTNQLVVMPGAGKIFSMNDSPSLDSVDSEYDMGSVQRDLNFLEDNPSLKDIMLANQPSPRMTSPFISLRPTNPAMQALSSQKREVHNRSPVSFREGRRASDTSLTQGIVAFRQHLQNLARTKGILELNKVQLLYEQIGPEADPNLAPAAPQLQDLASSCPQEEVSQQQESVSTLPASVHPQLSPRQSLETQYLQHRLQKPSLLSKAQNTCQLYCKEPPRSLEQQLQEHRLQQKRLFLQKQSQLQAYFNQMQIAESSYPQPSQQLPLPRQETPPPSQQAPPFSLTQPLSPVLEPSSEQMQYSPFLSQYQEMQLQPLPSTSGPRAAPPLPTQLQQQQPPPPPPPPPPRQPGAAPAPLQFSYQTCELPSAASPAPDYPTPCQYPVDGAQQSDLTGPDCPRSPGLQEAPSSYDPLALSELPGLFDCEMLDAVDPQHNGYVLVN

Structure (SMILES)	IC50 (SIK1) [nM]	IC50 (SIK2) [nM]	IC50 (SIK3) [nM]
COc1cc(-c2ccc3c(c2)ncn3-c2cc(OC)c(C(=O)NCC(F)(F)F)c(OC)c2)ccn1 [compound 106, 2,6-dimethoxy-4-[5-(2-methoxy-4-pyridyl)benzimidazol-1-yl]-N-(2,2,2-trifluoroethyl)benzamide]	100 to 500	10 to 100	10 to 100
COc1cc(-n2cnc3cc(-c4conc4C)ccc32)cc(OC)c1C(=O)NCC(F)(F)F [compound 108, 2,6-dimethoxy-4-[5-(3-methylisoxazol-4-yl)benzimidazol-1-yl]-N-(2,2,2-trifluoroethyl)benzamide]	100 to 500	100 to 500	100 to 500
COc1cc(-n2cnc3cc(-c4cnn(CC5CCCO5)c4)ccc32)cc(OC)c1C(=O)NCC(F)(F)F (stereo not drawn) [compound 111, 2,6-dimethoxy-4-[5-[1-(tetrahydrofuran-2-ylmethyl)pyrazol-4-yl]benzimidazol-1-yl]-N-(2,2,2-trifluoroethyl)benzamide]	0.01 to 10	0.01 to 10	0.01 to 10
COc1cc(-n2cnc3cc(-c4cnn(C)c4)ccc32)cc(OC)c1C(=O)NCC(C)C [compound 113, N-isobutyl-2,6-dimethoxy-4-[5-(1-methylpyrazol-4-yl)benzimidazol-1-yl]benzamide]	10 to 100	10 to 100	10 to 100
CCC(C)NC(=O)c1c(OC)cc(-n2cnc3cc(-c4cnn(C)c4)ccc32)cc1OC (stereo not drawn) [compound 114, 2,6-dimethoxy-4-[5-(1-methylpyrazol-4-yl)benzimidazol-1-yl]-N-sec-butyl-benzamide]	100 to 500	100 to 500	100 to 500
COc1cc(-n2cnc3cc(-c4cnn(C)c4)ccc32)cc(OC)c1C(=O)NC(C)C [compound 115, N-isopropyl-2,6-dimethoxy-4-[5-(1-methylpyrazol-4-yl)benzimidazol-1-yl]benzamide]	10 to 100	10 to 100	10 to 100
COc1cc(-n2cnc3cc(-c4cnnc(C)c4)ccc32)cc(OC)c1C(=O)NCC(F)(F)F [compound 121, 2,6-dimethoxy-4-[5-(6-methylpyridazin-4-yl)benzimidazol-1-yl]-N-(2,2,2-trifluoroethyl)benzamide]	> 500	100 to 500	10 to 100
COc1cc(-n2cnc3cc(-c4cnccn4)ccc32)cc(OC)c1C(=O)NCC(F)(F)F [compound 128, 2,6-dimethoxy-4-(5-pyrazin-2-ylbenzimidazol-1-yl)-N-(2,2,2-trifluoroethyl)benzamide]	> 500	> 500	100 to 500
COc1cc(-c2cnc3cc(-c4cnn(C)c4)ccn23)cc(OC)c1C(=O)NC1CS(=O)(=O)C1 [compound 130, N-(1,1-dioxothietan-3-yl)-2.6-dimethoxy-4-[7-(l-methylpyrazol-4-yl)imidazo[1,2-a]pyridin-3-yl]benzamide]	10 to 100	0.01 to 10	10 to 100
COCCN(C)C(=O)c1c(OC)cc(-c2cnc3cc(-c4cnn(C)c4)ccn23)cc1OC [compound 131, 2,6-dimethoxy-N-(2-methoxyethyl)-N-methyl-4-[7-(1-methylpyrazol-4-yl)imidazo[1,2-a]pyridin-3-yl]benzamide]	> 500	100 to 500	100 to 500
COc1cc(-n2cnc3cc(-c4nccn4C)ccc32)cc(OC)c1C(=O)NCC(F)(F)F [compound 134, 2,6-dimethoxy-4-[5-(1-methylimidazol-2-yl)benzimidazol-1-yl]-N-(2,2,2-trifluoroethyl)benzamide]	> 500	10 to 100	100 to 500
COc1cc(-n2cnc3cc(-c4cncn4C)ccc32)cc(OC)c1C(=O)NCC(F)(F)F [compound 135, 2,6-dimethoxy-4-[5-(3-methylimidazol-4-yl)benzimidazol-1-yl]-N-(2,2,2-trifluoroethyl)benzamide]	> 500	100 to 500	100 to 500
CCNC(=O)c1c(OC)cc(-n2cnc3cc(-c4noc(C)n4)ccc32)cc1OC(F)F [compound 136, 2-(difluoromethoxy)-N-ethyl-6-methoxy-4-[5-(5-methyl-l,2,4-oxadiazol-3-yl)benzimidazol-1-yl]benzamide]	> 500	> 500	> 500
COc1cc(-n2cnc3cc(-c4cnc(C)n4C)ccc32)cc(OC)c1C(=O)NCC(F)(F)F [compound 138, 4-[5-(2,3-dimethylimidazol-4-yl)benzimidazol-1-yl]-2,6-dimethoxy-N-(2,2,2-trifluoroethyl)benzamide]	> 500	100 to 500	100 to 500
COc1cc(-n2cnc3cc(-c4cnn(C)c4)ccc32)cc(OC)c1C(=O)N[C@@H]1CCC[C@H]1O [compound 143, N-[(1R,2R)-2-hydroxycyclopentyl]-2,6-dimethoxy-4-[5-(1-methylpyrazol-4-yl)benzimidazol-1-yl]benzamide]	100 to 500	10 to 100	10 to 100
CCNC(=O)c1c(OC)cc(-n2cnc3cc(-c4nnc(C)[nH]4)ccc32)cc1OC(F)F [compound 150, 2-(difluoromethoxy)-N-ethyl-6-methoxy-4-[5-(5-methyl-4H-1,2,4-triazol-3-yl)benzimidazol-1-yl]benzamide]	> 500	> 500	> 500
COc1cc(-n2cnc3cc(-c4c[nH]cn4)ccc32)cc(OC)c1C(=O)NCC(F)(F)F [compound 153, 4-[5-(1H-imidazol-4-yl)benzimidazol-1-yl]-2,6-dimethoxy-N-(2,2,2-trifluoroethyl)benzamide]	10 to 100	10 to 100	10 to 100

Second part, the molecule after the results:

IC50 (SIK1) [nM]	IC50 (SIK2) [nM]	IC50 (SIK3) [nM]	Structure (SMILES)
> 500	> 500	> 500	COc1cc(-n2cnc3cc(-c4cnn(C)c4)ccc32)cc(OC)c1C(=O)NC1CCCCC1OC (stereo not drawn) [compound 161, 2,6-dimethoxy-N-(2-methoxycyclohexyl)-4-[5-(1-methylpyrazol-4-yl)benzimidazol-1-yl]benzamide]
100 to 500	100 to 500	10 to 100	COc1cc(-n2cnc3cc(-c4cnn(C)c4)ccc32)cc(OC)c1C(=O)N1CCC1 [compound 162, azetidin-1-yl-[2,6-dimethoxy-4-[5-(1-methylpyrazol-4-yl)benzimidazol-1-yl]phenyl]methanone]
100 to 500	100 to 500	> 500	COc1cc(-n2cnc3cc(-c4cnn(C)c4)ccc32)cc(OC)c1C(=O)N[C@H]1CCCC[C@@H]1O [compound 164]
10 to 100	0.01 to 10	0.01 to 10	COc1cc(-c2cnc3cc(-c4cnn(C)c4)ccn23)cc(OC)c1C(=O)N[C@H]1CC[C@@H]1O [compound 170]
10 to 100	100 to 500	100 to 500	COc1cc(-n2cnc3cc(-c4cnn(C)c4)ccc32)cc(OC)c1C(=O)N1CC(c2ccccc2)C1 [compound 180, [2,6-dimethoxy-4-[5-(1-methylpyrazol-4-yl)benzimidazol-1-yl]phenyl]-(3-phenylazrtidin-1-yl)methanone]
> 500	> 500	> 500	COc1cc(-n2cnc3cc(-c4cnn(C)c4)ccc32)cc(OC)c1C(=O)N1C(C)CC1C (stereo not drawn) [compound 181, [2,6-dimethoxy-4-[5-(1-methylpyrazol-4-yl)benzimidazol-1-yl]phenyl]-(2,4-dimethylazetidin-1-yl)methanone]
> 500	> 500	> 500	COc1cc(-n2cnc3cc(-c4cnn(C)c4)ccc32)cc(OC)c1C(=O)N1CCC1C (stereo not drawn) [compound 182, [2,6-dimethoxy-4-[5-(1-methylpyrazol-4-yl)benzimidazol-1-yl]phenyl]-(2-methylazetidin-1-yl)methanone]
100 to 500	100 to 500	100 to 500	COc1cc(-n2cnc3cc(-c4cnn(C)c4)ccc32)cc(OC)c1C(=O)N1CC(CO)C1 [compound 183, [2,6-dimethoxy-4-[5-(1-methylpyrazol-4-yl)benzimidazol-1-yl]phenyl]-[3-(hydroxymethyl)azetidin-1-yl]methanone]
100 to 500	100 to 500	100 to 500	COc1cc(-n2cnc3cc(-c4cnn(C)c4)ccc32)cc(OC)c1C(=O)N1CC(O)C1 [compound 184, [2,6-dimethoxy-4-[5-(1-methylpyrazol-4-yl)benzimidazol-1-yl]phenyl]-(3-hydroxyazetidin-1-yl)methanone]
100 to 500	100 to 500	> 500	COc1cc(-n2cnc3cc(-c4cnn(C)c4)ccc32)cc(OC)c1C(=O)N1CC(N(C)C)C1 [compound 185, [2,6-dimethoxy-4-[5-(1-methylpyrazol-4-yl)benzimidazol-1-yl]phenyl]-[3-(dimethylamino)azetidin-1-yl]methanone]
10 to 100	100 to 500	100 to 500	COc1cc(-n2cnc3cc(-c4cnn(C)c4)ccc32)cc(OC)c1C(=O)N1CC(OCc2ccccc2)C1 [compound 186, (3-benzyloxyazetidin-1-yl)-[2,6-dimethoxy-4-[5-(1-methylpyrazol-4-yl)benzimidazol-1-yl]phenyl]methanone]
> 500	> 500	> 500	COc1cc(-n2cnc3cc(-c4cnn(C)c4)ccc32)cc(OC)c1C(=O)N1CCC1c1ccccc1 (stereo not drawn) [compound 187, [2,6-dimethoxy-4-[5-(1-methylpyrazol-4-yl)benzimidazol-1-yl]phenyl]-(2-phenylazetidin-1-yl)methanone]
